The AC50 is the midpoint of the concentration-response curve, whichever way the signal moves.

Results on four compounds are retold here after ChEMBL document CHEMBL5291721, “A preclinical secondary pharmacology resource illuminates target-adverse drug reaction associations of marketed drugs” (Nat Commun, 2023).

The target in assay [1] is T1, Alpha-1A adrenergic receptor (Homo sapiens, UniProt P35348).
T1 sequence (P35348 whole entry): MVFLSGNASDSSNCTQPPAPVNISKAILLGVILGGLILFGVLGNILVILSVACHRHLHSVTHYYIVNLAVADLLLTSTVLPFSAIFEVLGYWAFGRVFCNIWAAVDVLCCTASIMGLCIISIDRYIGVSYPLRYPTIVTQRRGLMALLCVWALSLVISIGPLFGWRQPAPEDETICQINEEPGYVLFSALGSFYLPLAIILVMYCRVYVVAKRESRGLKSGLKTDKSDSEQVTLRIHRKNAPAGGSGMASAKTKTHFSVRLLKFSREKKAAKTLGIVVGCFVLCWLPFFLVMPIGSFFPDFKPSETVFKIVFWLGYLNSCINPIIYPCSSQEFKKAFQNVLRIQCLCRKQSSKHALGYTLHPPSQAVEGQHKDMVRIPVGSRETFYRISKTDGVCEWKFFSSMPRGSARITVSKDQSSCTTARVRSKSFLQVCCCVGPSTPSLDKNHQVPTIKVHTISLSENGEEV

Assay [2] deals with Beta-3 adrenergic receptor (Homo sapiens, UniProt P13945).
Beta-3 adrenergic receptor, sequence (P13945 whole entry): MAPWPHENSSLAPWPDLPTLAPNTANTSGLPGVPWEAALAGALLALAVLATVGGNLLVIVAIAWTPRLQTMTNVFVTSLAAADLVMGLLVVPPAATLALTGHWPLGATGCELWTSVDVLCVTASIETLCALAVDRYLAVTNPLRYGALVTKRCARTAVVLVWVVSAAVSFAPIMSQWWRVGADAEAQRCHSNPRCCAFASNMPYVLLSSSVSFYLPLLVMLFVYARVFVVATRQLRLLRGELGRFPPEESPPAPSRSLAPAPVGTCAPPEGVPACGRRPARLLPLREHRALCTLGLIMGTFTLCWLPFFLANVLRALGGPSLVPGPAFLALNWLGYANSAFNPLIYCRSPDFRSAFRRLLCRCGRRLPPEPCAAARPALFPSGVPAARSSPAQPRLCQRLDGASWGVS
A further assay deals with T2, Androgen receptor (Rattus norvegicus, UniProt P15207).
T2 sequence (P15207 whole entry): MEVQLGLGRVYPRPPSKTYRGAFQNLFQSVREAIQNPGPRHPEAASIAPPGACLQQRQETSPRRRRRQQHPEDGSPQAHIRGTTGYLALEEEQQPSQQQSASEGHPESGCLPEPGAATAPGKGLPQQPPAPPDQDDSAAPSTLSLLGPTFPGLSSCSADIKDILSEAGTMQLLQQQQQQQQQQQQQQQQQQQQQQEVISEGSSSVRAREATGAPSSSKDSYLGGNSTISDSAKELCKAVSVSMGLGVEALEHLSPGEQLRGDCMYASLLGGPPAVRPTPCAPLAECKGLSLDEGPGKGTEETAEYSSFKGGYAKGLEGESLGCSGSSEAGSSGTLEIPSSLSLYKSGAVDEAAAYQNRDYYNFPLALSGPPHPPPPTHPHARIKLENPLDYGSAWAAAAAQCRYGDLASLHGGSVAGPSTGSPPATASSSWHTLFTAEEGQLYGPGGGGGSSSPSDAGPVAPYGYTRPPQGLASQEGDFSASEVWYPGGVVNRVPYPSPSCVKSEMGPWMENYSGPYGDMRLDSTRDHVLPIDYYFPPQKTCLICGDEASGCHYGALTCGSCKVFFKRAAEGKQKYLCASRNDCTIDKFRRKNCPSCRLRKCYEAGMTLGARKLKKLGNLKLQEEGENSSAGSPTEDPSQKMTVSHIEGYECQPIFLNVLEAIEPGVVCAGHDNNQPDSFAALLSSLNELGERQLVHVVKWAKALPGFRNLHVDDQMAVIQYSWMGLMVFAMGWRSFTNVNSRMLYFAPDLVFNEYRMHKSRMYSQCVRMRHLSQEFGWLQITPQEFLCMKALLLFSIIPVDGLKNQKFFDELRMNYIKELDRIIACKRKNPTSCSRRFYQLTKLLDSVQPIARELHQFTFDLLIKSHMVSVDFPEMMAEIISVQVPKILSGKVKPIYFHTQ
It counts as functional.

Assay [3] addresses Voltage-dependent N-type calcium channel subunit alpha-1B (Rattus norvegicus, UniProt Q02294). It counts as functional.
The target of another assay is Cannabinoid receptor 1 (Homo sapiens, UniProt P21554).
Cannabinoid receptor 1, sequence (P21554 whole entry): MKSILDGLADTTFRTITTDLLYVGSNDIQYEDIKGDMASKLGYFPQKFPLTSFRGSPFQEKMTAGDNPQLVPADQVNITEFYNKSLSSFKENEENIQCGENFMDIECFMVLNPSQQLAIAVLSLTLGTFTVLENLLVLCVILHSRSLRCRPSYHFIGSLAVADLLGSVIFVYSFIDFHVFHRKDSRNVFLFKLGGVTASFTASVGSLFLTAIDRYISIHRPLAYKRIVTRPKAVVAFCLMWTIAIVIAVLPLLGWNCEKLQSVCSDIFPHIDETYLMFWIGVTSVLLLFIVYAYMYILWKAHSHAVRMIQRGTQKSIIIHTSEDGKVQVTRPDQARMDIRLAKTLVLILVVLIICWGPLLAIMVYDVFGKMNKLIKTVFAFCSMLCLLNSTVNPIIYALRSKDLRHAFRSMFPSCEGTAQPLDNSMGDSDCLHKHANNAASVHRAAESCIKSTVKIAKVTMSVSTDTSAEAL
For assay [4], the target named is T3, Corticotropin-releasing factor receptor 2 (Homo sapiens, UniProt Q13324).
T3 sequence (Q13324 whole entry): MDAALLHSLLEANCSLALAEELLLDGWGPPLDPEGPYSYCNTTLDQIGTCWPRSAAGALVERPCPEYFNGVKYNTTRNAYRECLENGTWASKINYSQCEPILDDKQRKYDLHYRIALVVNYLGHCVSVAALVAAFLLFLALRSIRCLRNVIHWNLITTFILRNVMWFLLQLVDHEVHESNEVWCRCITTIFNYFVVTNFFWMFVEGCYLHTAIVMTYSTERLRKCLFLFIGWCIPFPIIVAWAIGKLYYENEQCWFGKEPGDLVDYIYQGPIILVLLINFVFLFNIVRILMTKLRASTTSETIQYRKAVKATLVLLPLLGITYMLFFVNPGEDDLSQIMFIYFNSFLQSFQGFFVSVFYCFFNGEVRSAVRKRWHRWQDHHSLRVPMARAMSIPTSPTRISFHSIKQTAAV

For a further assay, the target named is Histamine H2 receptor (Homo sapiens, UniProt P25021).
Histamine H2 receptor, sequence (P25021 whole entry): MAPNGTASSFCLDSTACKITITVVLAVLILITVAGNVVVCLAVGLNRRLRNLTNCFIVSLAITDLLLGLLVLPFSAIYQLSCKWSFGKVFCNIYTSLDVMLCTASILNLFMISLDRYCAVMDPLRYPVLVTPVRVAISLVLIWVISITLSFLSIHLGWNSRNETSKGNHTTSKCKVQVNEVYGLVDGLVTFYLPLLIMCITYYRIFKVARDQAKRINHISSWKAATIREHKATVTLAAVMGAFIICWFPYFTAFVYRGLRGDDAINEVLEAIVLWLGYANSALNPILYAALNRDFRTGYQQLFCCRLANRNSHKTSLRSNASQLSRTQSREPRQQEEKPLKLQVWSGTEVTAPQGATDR
The target of assay [5] is Neurotensin receptor type 1 (Homo sapiens, UniProt P30989).
Neurotensin receptor type 1, sequence (P30989 whole entry): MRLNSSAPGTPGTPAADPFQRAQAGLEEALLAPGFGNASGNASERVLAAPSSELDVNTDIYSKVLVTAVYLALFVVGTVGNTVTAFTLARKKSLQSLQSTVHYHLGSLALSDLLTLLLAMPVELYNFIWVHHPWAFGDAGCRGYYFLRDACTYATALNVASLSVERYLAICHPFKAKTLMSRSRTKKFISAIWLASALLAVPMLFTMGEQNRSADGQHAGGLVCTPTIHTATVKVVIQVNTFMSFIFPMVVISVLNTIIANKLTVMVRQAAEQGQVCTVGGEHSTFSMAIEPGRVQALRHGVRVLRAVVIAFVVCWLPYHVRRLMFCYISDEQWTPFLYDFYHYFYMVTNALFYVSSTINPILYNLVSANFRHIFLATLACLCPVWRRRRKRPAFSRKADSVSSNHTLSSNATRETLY
In assay [6] the target is Beta-2 adrenergic receptor (Homo sapiens, UniProt P07550). It counts as functional, cell-based.
Beta-2 adrenergic receptor, sequence (P07550 whole entry): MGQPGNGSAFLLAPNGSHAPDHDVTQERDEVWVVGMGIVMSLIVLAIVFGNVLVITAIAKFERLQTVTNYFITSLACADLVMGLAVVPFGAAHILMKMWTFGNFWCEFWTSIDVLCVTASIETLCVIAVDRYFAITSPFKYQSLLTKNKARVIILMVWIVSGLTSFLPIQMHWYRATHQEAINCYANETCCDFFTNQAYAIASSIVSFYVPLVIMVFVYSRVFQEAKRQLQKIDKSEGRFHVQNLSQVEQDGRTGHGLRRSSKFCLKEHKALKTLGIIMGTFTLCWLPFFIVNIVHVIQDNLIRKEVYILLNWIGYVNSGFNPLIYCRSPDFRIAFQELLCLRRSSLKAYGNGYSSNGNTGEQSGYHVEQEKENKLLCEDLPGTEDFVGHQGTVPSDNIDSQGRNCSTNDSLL
Note: assay procedure not described here.

Voltage-dependent N-type calcium channel subunit alpha-1B, sequence (Q02294 whole entry): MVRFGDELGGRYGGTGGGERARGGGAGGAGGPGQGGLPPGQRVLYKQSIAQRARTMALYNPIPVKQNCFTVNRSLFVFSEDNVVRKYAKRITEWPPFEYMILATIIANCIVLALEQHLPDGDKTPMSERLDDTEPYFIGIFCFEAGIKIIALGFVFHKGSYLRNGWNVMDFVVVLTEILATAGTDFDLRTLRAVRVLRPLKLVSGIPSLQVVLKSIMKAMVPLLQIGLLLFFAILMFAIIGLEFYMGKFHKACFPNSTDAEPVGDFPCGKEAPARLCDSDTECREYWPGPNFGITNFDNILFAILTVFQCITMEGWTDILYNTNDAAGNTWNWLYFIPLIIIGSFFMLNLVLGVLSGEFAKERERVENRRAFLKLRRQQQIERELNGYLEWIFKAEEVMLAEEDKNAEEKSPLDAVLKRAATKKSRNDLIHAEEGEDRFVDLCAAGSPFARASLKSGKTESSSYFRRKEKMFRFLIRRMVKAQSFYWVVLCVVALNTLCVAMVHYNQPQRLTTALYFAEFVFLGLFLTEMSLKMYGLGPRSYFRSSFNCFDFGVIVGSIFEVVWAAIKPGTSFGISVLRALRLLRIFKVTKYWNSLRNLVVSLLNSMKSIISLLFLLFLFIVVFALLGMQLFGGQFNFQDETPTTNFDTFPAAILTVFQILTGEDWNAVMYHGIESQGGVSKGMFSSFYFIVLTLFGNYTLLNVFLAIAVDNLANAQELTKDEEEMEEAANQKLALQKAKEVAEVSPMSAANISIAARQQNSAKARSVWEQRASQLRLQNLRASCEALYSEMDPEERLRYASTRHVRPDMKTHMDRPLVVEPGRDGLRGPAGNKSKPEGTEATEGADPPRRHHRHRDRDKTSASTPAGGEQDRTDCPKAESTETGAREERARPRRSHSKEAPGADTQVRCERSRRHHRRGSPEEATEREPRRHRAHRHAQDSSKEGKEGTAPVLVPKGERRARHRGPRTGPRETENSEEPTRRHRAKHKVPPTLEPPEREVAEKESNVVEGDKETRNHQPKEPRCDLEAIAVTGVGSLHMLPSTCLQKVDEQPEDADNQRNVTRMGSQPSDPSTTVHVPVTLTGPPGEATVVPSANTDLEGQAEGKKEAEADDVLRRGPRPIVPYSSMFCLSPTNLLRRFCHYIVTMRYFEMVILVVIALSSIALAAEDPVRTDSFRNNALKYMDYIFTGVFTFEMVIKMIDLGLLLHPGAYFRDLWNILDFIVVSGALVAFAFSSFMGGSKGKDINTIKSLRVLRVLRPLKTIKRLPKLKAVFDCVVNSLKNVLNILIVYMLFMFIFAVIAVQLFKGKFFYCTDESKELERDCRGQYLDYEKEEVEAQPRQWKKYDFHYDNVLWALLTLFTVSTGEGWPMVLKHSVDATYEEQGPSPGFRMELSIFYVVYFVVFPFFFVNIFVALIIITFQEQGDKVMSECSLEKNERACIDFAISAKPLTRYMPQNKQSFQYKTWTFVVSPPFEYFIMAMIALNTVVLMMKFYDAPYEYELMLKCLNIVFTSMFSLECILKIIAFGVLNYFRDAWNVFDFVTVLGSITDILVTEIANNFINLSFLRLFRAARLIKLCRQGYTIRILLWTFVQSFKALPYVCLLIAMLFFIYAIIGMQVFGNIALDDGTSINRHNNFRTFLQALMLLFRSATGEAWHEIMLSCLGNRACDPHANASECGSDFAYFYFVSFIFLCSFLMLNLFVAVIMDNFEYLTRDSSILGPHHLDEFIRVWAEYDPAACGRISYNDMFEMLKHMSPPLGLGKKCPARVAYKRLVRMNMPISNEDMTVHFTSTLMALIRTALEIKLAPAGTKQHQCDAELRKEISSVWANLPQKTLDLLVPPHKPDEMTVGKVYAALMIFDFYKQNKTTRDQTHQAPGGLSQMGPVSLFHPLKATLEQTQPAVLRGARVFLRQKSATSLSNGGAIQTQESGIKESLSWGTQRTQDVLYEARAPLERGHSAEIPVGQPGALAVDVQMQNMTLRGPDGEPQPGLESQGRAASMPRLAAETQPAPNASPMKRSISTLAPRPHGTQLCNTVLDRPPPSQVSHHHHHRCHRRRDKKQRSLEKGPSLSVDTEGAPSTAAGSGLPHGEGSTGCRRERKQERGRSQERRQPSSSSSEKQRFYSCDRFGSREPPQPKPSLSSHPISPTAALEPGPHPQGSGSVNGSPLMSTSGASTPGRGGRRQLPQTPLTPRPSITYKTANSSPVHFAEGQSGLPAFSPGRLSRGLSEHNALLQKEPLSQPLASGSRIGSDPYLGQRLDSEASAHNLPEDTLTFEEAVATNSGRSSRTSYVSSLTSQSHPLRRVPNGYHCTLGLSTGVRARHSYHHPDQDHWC

Regarding `CCCCCN(C)CCC(O)(P(=O)(O)O)P(=O)(O)O` [IBANDRONIC ACID], the AC50 in [1] is above 10 µM; in assay [2], above 30 µM; at Androgen receptor, above 30 µM; in assay [3], above 10 µM; on Cannabinoid receptor 1 it was above 30 µM; in assay [4] it was above 30 µM. The values for the AC50 (at Histamine H2 receptor; in [5]) were above 10 µM and above 30 µM, respectively.

As to `COc1ccc(C(=O)N2CCN(c3ccc4c(c3)CCC(=O)N4)CC2)cc1OC` [VESNARINONE], the AC50 in assay [6] was above 30 µM; at Androgen receptor it was 2.5 µM.

Consider `C1=Cc2cccc(OCC3CNCCO3)c2C1` (centres undefined) [INDELOXAZINE], for which the AC50 (in assay [6]; on Androgen receptor) was above 30 µM in each case.

Take `[H]/N=C(/N)c1ccc(NCc2nc3cc(C(=O)N(CCC(=O)O)c4ccccn4)ccc3n2C)cc1` [DABIGATRAN]: the AC50 (in [6]; at Androgen receptor) was above 30 µM in each case.
